What was measured:
[1] = test system: tumor Micro-Organospheres; assay: drug screen on Patient-Derived Micro-Organospheres formed from a patient tumor biopsy; assay type: cell-based; settings: for percent survival of the Micro-Organospheres in the presence of the drug: Example 3, FIG. 23B, 23C
Description: The Patient-Derived Micro-Organospheres described herein may be used in a variety of different assays, and in particular may be used to determine drug formulation effects, including toxicity, on normal and/or abnormal (e.g., cancerous) tissue. For example, drug screening may include applying Micro-Organospheres into all or some wells of multi-well (e.g., a 96-well) plate. Alternatively custom plates may be used (e.g., a 10,000 micro-well array may be formed of a 100 × 100 wells). The Micro-Organospheres (e.g., gel droplets) may be applied into, or in some variations onto the multiple microwell arrays and incubated with culture medium. The Micro-Organospheres may be cultured over the course of 3-5 days. In some variations, on day 5, the wells (e.g., micro-reactors) may then be dosed with drug compounds, e.g., based on a set of FDA-approved anticancer drugs, to examine the effects of the drug panel. For example, the drugs texted may be based on the National Cancer Institute (Division of Cancer Treatment and Diagnosis (11)) screen, consisting of 147 agents intended to enable cancer research, drug discovery and combination drug studies. On Day 7, the Micro-Organospheres may be imaged via standard fluorescent microscopy and ranked based on drug response.
In this example, the screening assay may be automated. This may enable repeatable and automated workflow, which may increase the number of drugs screened from a few to hundreds. FIGS. 17A-17E illustrate one example of this workflow. In FIG. 17A, a tumor biopsy is taken and a plurality (e.g., >10,000) Micro-Organospheres are formed as described above (in FIG. 17A the junction region forming the Micro-Organospheres is illustrated).
The workflow shown in FIGS. 17A-17E may enable an integrated device to be used for growing, dosing and/or reviewing the Micro-Organospheres. […] Their response to drug treatments, such as IC-50, cytotoxicity, and growth curves, may be measured to identify effective therapeutics against the patient's tumor.

[2] = test system: traditional cell line; assay: traditional (2D) tumor cell line dosed with drug; assay type: cell-based; settings: Example 2, FIG. 22A, all dose ranges examined
Description: As mentioned above, the Patient-Derived Micro-Organospheres and methods of using them to screen for drug compositions may be used to accurately predict the response of a patient tumor to one or more drug therapies. […] For example, in FIG. 22A-22D, the Micro-Organospheres, but not a cell line, was able to correlate with patient response.

[3] = test system: patient tumor; assay: actual response of the patient's tumor to treatment with the drug; assay type: in vivo
Protocol: In a similar set of experiments, Micro-Organospheres were generated from biopsy material (FIG. 23A), and a drug effect screen was performed using the resulting Micro-Organospheres. […] Thus, the Micro-Organospheres correlated strongly with patient response to the standard of care drugs. In this case, the patient endured six months of side effects and toxicities that may have been avoided by the predicted response from the Micro-Organospheres, indicating (within 7-10 days from the biopsy) that the tumor would not respond to these drugs.

Compound	percent survival of the Micro-Organospheres in the presence of the drug [1]	effect of the drug on the cell line [2]	cell survival of tumor Micro-Organospheres ([1]; Example 2, FIG. 22B)	tumor response to treatment ([3]; Example 2, FIG. 22C (before) and 22D (post treatment))	patient response to treatment ([3]; Example 3, treated with both Oxalipalatin and Irinotecan, after 6 months of treatment)
CCc1c2c(nc3ccc(OC(=O)N4CCC(N5CCCCC5)CC4)cc13)-c1cc3c(c(=O)n1C2)COC(=O)[C@]3(O)CC [Irinotecan]	lack of effect	–	–	–	–
O=C1[O][Pt]2([NH][C@@H]3CCCC[C@H]3[NH]2)[O]C1=O [Oxaliplatin]	no change in the percent survival	no effect	significant decreases in cell survival	responded to treatment	no response

From US11555180B2, “Methods and apparatuses for patient-derived micro-organospheres” (Xilis, Inc., priority 2019, dated 2023)
